{"source": "patent US20070232669A1", "about": "“N-phenylbenzotriazolyl c-kit inhibitors” (priority 2006, published 2007)", "origin": "cited, not measured here", "key": {"[1]": {"system": "MO7e human leukemia cells"}, "[2]": {"system": "MO7e human leukemia cells", "remark": "listed apart in the source"}}, "note": "Structures can show the parent of a compound that is named as a salt.", "data": [{"smiles": "Cc1ccc(NC(=O)c2ccc(CN3CCN(C)CC3)cc2)cc1Nc1nccc(-c2cccnc2)n1", "note": "[Gleevec, imatinib mesylate]", "values": [{"measurement": "Kit ligand-stimulated growth of MO7e human leukemia cells", "setting": "[1]", "value": "inhibited"}, {"measurement": "GM-CSF stimulated growth of MO7e human leukemia cells", "setting": "[2]", "value": "not affected"}]}]}
